The target of test [1] is T1, β-lactamase I from Bacillus cereus (Bacillus cereus, UniProt P00809). The format is biochemical. The following applies: for ECL increase upon enzyme hydrolysis, second experiment: incubating time with enzyme 60 minutes, ampicillin with Ru(bpy)3^+2, FIG. 9. How it is done:
ECL properties were compared both before and after NaOH and enzymatic hydrolysis (FIG. 7).
Following 30 minute incubations, the solutions were neutralized with 50 μL of 5 M HCl. […] Following 30 minute incubations, 50 μL of 5 M NaCl was added to these solutions.
ECL properties were compared before and after NaOH and enzymatic hydrolysis.
Following 30 minute incubations, the solutions were neutralized with 50 μL of 5 M HCl. […] Following 60 minute incubations, 50 μL of 5 M NaCl was added to these solutions.

In test [2] the target is T1, β-lactamase I from Bacillus cereus. The following applies: in words.
Where [3] appears, read: 3.8 μM β-lactamase I, 23.0 μM, 6-APA in equimolar mixture with Ru(bpy)3^+2 (nonconjugated), FIG. 11.
Setting [4] is: 347 nM β-lactamase I, 30 minutes, 30 μM, ampicillin in equimolar mixture with Ru(bpy)3^+2 (nonconjugated), FIG. 8.

These results are taken from patent US7018802B2, “Electrochemiluminescent enzyme immunoassay” (BioVeris Corporation, priority 1995, dated 2006).

Like-named read-outs stand apart in the source and are kept apart here.

T1 sequence (P00809 28-306): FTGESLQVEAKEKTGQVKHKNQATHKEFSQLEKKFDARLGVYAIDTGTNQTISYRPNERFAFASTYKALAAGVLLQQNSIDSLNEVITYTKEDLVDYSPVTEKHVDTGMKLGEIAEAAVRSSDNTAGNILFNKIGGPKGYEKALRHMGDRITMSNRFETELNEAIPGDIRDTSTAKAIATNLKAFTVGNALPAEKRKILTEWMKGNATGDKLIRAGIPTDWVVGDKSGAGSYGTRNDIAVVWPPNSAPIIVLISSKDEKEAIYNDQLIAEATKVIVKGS

Turning to `CC1(C)S[C@@H]2[C@H](N)C(=O)N2[C@H]1C(=O)O` [6-APA, 6-aminopenicillanic acid, reference compound], the “ECL increase upon enzyme hydrolysis” value in test [1] (setting [3]) is recorded as 1.4 fold.

For `CC1(C)S[C@@H]2[C@H](NC(=O)[C@H](N)c3ccccc3)C(=O)N2[C@H]1C(=O)O` [ampicillin, reference compound], the “ECL increase upon enzyme hydrolysis” value in test [1] (setting [4]) amounted to 2.1 fold. For the same compound, the “ECL increase upon enzyme hydrolysis, second experiment” value in test [1] was determined as 2.5 fold.

With “Ru(bpy)3^+2-labeled 6-aminopenicillanic acid [Ru-APA]”, the “ECL increase upon enzyme hydrolysis” value in test [1] (setting [3]) came to 31.8 fold. The “substrate quality for β-lactamase” value in test [2] is listed as “very good substrate”.

Turning to Ru(bpy)3^+2-labeled ampicillin [Ru-AMP], the “ECL increase upon enzyme hydrolysis” value in test [1] (setting [4]) came out at 9.8 fold. Besides, the “ECL increase upon enzyme hydrolysis, second experiment” value in test [1] is 11.1 fold. For the same compound, the “substrate quality for β-lactamase” value in test [2] was “very good substrate”.
